Square brackets hold non-standard residues; d marks the D form. Ends that are not written are not given here. Peptide text beside a SMILES is read from it. 3'AdT = not defined here
What was measured:
keratan-sulfate (KS) = test: modified ELISA: binding of peptides to plate-coated keratan-sulfate; conditions: plates coated with 1 mg/ml KS, 1 mg/ml peptide, 1 hour at room temperature
Procedure: The binding of the seven-mer peptides of the invention to KS as predicted by the models, in particular, as compared to the binding to other proteoglycans was tested using a modified ELISA protocol. ELISA plates were coated overnight with 1 mg/ml of heparin sulfate (HS), chondroitin-4-sulfate (C4S), chondroitin-6-sulfate (C6S) or keratan-sulfate (KS) in PBS. The wells were then washed with PBS and incubated for 1 hour at room temperature with 1 mg/ml of an exemplary peptide of the invention having the sequence RYKvRIK (“RYK-KS”; SEQ ID NO:7) or a standard TAT peptide. The plates were then thoroughly washed with PBS and subsequently photographed with a LUMASCOPE™ luminescent microscope. Images were then quantified using the ImageJ software (FIG. 4).
The same modified ELISA protocol was used to examine the impact of modifying the freely-selectable positions 2, 4 and 6 on the specific binding to KS.
The impact of sequence variation on specific binding was also investigated with select peptides using the above described modified ELISA.

[1] = estimation of in vivo stability: incubation of peptides with fetal calf serum; type: in vitro ADME; conditions: 37° C.; for degradation in fetal calf serum: 6 hr; for remaining at 6 h: fetal calf serum, read-out: stable at 6 hours
Procedure: In vivo stability was estimated by mixing peptides with fetal calf serum and incubating at 37° C. for 6 hr. Samples were tested at both 0 and 6 hours.

MDCK cells = test: viability of MDCK cultures by trypan blue exclusion after 96 hour incubation with BAM-conjugate; type: cell-based; conditions: 0.5 μM to 10 μM tested
Procedure: The activity of peptides of the invention as targeting moieties was tested in vitro in preliminary studies using cells lines expressing KS. The nucleoside analog 3′ amino deoxythymidine (3′AdT) was conjugated to the amino-terminus of the peptide “RYRI” (RYKvRlK (SEQ ID NO:7)) using a single D-Glu residue (3′AdT-e-RYRI).
Confluent cultures of MDCK were passaged at 1/20 dilution and exponentionally growing cells were incubated for 96 hours with concentrations of the nucleoside analog conjugates ranging from 0.5 μM to 10 μM. Viability was subsequently assessed using trypan blue exclusion.

RKKRRQRR (Artificial TAT control peptide) [standard TAT peptide]
binding to KS (keratan-sulfate (KS)): increases in binding that were likely non-selective

CC[C@H](C)[C@H](N)C(=O)N[C@@H](CCCNC(=N)N)C(=O)N[C@H](C(=O)N[C@H](CCCCN)C(=O)N[C@H](C(=O)N[C@H](CCCNC(=N)N)C(=O)N[C@H](C(=O)N[C@@H](CCCCN)C(=O)O)[C@@H](C)CC)[C@@H](C)CC)[C@@H](C)CC [IRIkIrIK] (HELM PEPTIDE1{I.R.I.[dK].I.[dR].I.K}$$$$V2.0; N-terminus and C-terminus assumed)
degradation in fetal calf serum [1]: no degradation | remaining at 6 h [1]: 100%

RYKvFIKPRh (RYK[dV]FIKPR[dH])
binding to KS (keratan-sulfate (KS)): eliminated binding activity

D-linked conjugate: 3′AdT conjugated to the amino-terminus of the peptide RYRI (RYKvRIK) by a single D-Glu residue ({3'AdT}-[dE]RYK[dV]RIK; reading uncertain; also: printed as RYKvRIK)
concentrations with substantial effects on viability (MDCK cells): ≥ 0.5 µM

CC[C@H](C)[C@H](NC(=O)[C@H](CCCNC(=N)N)NC(=O)[C@H](NC(=O)[C@H](CCCCN)NC(=O)[C@H](Cc1ccc(O)cc1)NC(=O)[C@@H](N)CCCNC(=N)N)C(C)C)C(=O)N[C@@H](CCCCN)C(=O)O [RYK-KS, RYKvRIK] (HELM PEPTIDE1{R.Y.K.[dV].R.I.K}$$$$V2.0; N-terminus and C-terminus assumed)
degradation in fetal calf serum [1]: no degradation | remaining at 6 h [1]: 100%

RYKvRPKYF (RYK[dV]RPKYF) [control peptide with proline at position 6]
binding to KS (keratan-sulfate (KS)): eliminated binding activity

RRRRRRRRR [pure arginine 9-mer]
binding to KS (keratan-sulfate (KS)): increases in binding that were likely non-selective

RPKHRPK [RPKHRPK]
degradation in fetal calf serum [1]: completely degraded

Source: patent US10174078B2, “Keratan sulfate specific transporter molecules” (PHI PHARMA SA, priority 2014, dated 2019)
